Experimental data taken from patent publication US6680058B1, “Compositions and methods for contraception in or sterilization of mammals” (Board of Supervisors of Louisiana State University and …, priority 1997, dated 2004).
Where no end group is shown, it is not given here.

Experiments:
[1] = test system: pituitary basophilic (gonadotropic) cells; test: Adult female rat pituitary gland sections in tissue culture, histology ten hours after treatment (Examples 1-6); type: cell-based
Experimental: The pituitary gland of an adult female rat was harvested and divided into six sections of approximately equal size. One section was placed in each of six wells containing tissue culture medium at 37° C. A different treatment was applied to each well, as described below. Ten hours after treatment, the tissue from each well was fixed, and the histology of each was examined microscopically.

[2] = test system: sexually immature female rats; test: Sexually immature female rats, two intravenous injections, examined after reaching breeding age (Examples 7-8); type: in vivo, rat
Experimental: Two sexually immature female rats from the same litter (age 33 days) were given two intravenous injections of saline control solution 24 hours apart. After the rats reached breeding age, they were examined 105 days post-inoculation. […] During a fourteen-day monitoring period 107 days to 121 days post-inoculation, each of the control rats completed two estrous cycles. The rats were then sacrificed and necropsied. The reproductive organs appeared histologically normal.
Two sexually immature female rats from the same litter as those of Example 7 (age 33 days) were given two intravenous injections of 500 μg GnRH/hecate fusion peptide in saline 24 hours apart. After the rats reached breeding age, they were examined 105 days post-inoculation. […] Unlike the control rats, insertion of a cotton-tipped swab into the vagina was difficult. […] The rats were then sacrificed and necropsied.

[3] = test system: sexually mature, mixed breed, female rats; test: Sexually mature female rats, double intravenous treatment, necropsy two weeks after treatment (Examples 9-14); type: in vivo, rat
Excerpt: Eighteen sexually mature, mixed breed, female rats were randomly assigned to one of six groups containing three rats each. Each group of rats received a double treatment intravenously, as described below. Two weeks after the treatment, the rats were sacrificed and necropsied. The reproductive and endocrine organs were sectioned, weighed, and examined histologically.

GnRH receptor = molecular target: T1, GnRH receptor (Rattus norvegicus, UniProt P30969); test: Displacement of radiolabelled monoiodinated-GnRH from rat pituitary membranes (Example 24); type: binding; settings: molar basis over a 1000-fold concentration range (n=6); native GnRH = 100%
T1 construct: specifically displaced radiolabelled monoiodinated-GnRH from rat pituitary membranes; from tissue; host or cells: rat pituitary membranes
T1 sequence (P30969 1-327): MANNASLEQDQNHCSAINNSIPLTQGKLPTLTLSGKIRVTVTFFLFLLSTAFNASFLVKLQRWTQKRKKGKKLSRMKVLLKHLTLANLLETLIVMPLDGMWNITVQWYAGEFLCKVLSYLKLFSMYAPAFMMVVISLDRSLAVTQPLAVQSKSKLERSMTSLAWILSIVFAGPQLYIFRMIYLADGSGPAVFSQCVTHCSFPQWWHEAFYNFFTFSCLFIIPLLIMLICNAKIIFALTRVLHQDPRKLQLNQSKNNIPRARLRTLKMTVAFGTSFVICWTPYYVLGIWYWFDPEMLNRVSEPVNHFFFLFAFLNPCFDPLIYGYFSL
Excerpt: We also synthesized D-Lys^6GnRH (SEQ. ID NO. 13), so that hecate could be conjugated to the D-Lys^6, a position that could minimize interference with binding of the GnRH domain to the GnRH receptor. These synthetic peptides specifically displaced radiolabelled monoiodinated-GnRH from rat pituitary membranes.

[4] = test system: sexually mature female New Zealand rabbits; test: Sexually mature female New Zealand rabbits, intravenous GnRH-hecate, GnRH challenge day 46, histology day 47 (Examples 44-46); type: in vivo, rabbit
Experimental: Seven sexually mature female New Zealand rabbits were injected intravenously with saline containing GnRH-hecate as follows:
Forty-six days later all rabbits were injected intramuscularly with 100 μg GnRH. Blood samples were collected at 0, 1, 4, and 24 hours, and LH and FSH levels in the blood samples were measured by radioimmunoassay. […] The rabbits were sacrificed the next day (day 47) for postmortem histological analysis. […] Ovarian and pituitary weights were reduced by the 10 mg GnRH-hecate treatment.

[5] = test system: sexually mature female rabbits; test: Sexually mature female rabbits, intravenous GnRH-hecate, GnRH challenge day 6, sacrifice day 7 (Examples 47-48); type: in vivo, rabbit
Experimental: Nine sexually mature female rabbits were injected intravenously with saline containing 0 mg (n=4) (Treatment 47) or 10 mg GnRH-hecate (n=5) (Treatment 48). Rabbits were injected intramuscularly with GnRH on day 6 post-treatment. Blood samples were collected for radioimmunoassay of LH and FSH as described above, and the animals were sacrificed on day 7 post-treatment. […] Again, the effects were more pronounced on GnRH neurons than on staining of pituitary gonadotropes.
The number of ovulation sites in rabbits in Examples 47 and 48 treated with 10 mg GnRH-hecate were reduced as compared to saline controls. The mean number of ovulation sites in four saline controls equalled 12.2±5.4, with S.E.M.=2.7. The mean number of ovulation sites in the five rabbits given 10 mg of GnRH-hecate was 3.6±1.1, with S.E.M.=0.5. This difference from control was significant (p=0.025).
The “LH surge” (the level of LH at one hour post-GnRH challenge, minus the resting level before challenge) in the four controls was 61.2±16.5 ng/mL, with S.E.M.=8.3; and in the treated group was 49.6±26.1 ng/mL, with S.E.M.=12 (p=0.22). Thus there was a trend towards lower LH levels in the treated group.

[6] = two i.v. injections of 500 μg 24 hours apart at age 33 days, necropsy after day 121
[7] = Treatment 10: two 0.5 mg i.v. injections 24 hours apart, two weeks
[8] = Treatment 14: fusion peptide further purified by HPLC, two 0.5 mg i.v. injections 24 hours apart

Substance: GnRH-hecate: fusion peptide of modified GnRH bonded directly to the lytic peptide hecate, SEQ. ID NO. 3 (QHWSYGLRPGFALALKALKKALKKLKKALKKAL; ends and bridges not checked; also: GnRH part modified, modification not given here)
- histology of pituitary tissue after treatment ([1]; 50 μM fusion peptide, ten hours): Widespread basophilic (gonadotropic) cellular destruction
- histology of pituitary tissue after treatment ([1]; initial application of fusion peptide, second application two hours later): virtually destroyed, with only stromal cells remaining
- estrous cycling during fourteen-day monitoring period ([2]; two i.v. injections of 500 μg 24 hours apart at age 33 days, 107 to 121 days post-inoculation): neither of the treated rats demonstrated estrous or metestrous
- insertion of a cotton-tipped swab into the vagina ([2]; two i.v. injections of 500 μg 24 hours apart at age 33 days, 105 days post-inoculation): difficult
- ovarian follicles at necropsy [2, 6]: contained no large follicles, and had a high number of atretic follicles
- uterine and oviductal epithelia at necropsy [2, 6]: thinned, inactive
- appearance of external genitalia ([2]; two i.v. injections of 500 μg in saline 24 hours apart at age 33 days, examined 105 days post-inoculation): appeared small
- ovarian function / follicular development ([3]; Treatment 10: total 1.0 mg in saline i.v. as two 0.5 mg injections 24 hours apart, two weeks): arrest of normal ovarian follicular development
- corpora lutea and follicles [3, 7]: Few corpora lutea were present, and those that were present appeared old. Follicles were large, and had not ruptured
- pituitary size [3, 7]: slightly smaller than the pituitaries from the saline control group
- uterine morphology [3, 7]: consistent with hormonal inactivity
- corpora lutea and follicles [3, 8]: Few corpora lutea were present, and those that were present appeared old. Follicles were large, and had not ruptured
- uterine morphology [3, 8]: consistent with hormonal inactivity
- ovarian function / follicular development ([3]; Treatment 14: fusion peptide further purified by HPLC, two 0.5 mg i.v. injections 24 hours apart, two weeks): arrest of normal ovarian follicular development
- specific displacement of the radiolabelled peptide relative to equimolar concentrations of GnRH (GnRH receptor): 123%±4%
- LH release in response to 100 μg GnRH i.m. ([4]; 5 mg or 10 mg i.v., challenge forty-six days later, radioimmunoassay): released LH in response to the GnRH
- cells staining alpha-MSH in the pituitary ([4]; 5 mg or 10 mg i.v., day 47): increased numbers
- cells staining for LH in the pituitary ([4]; 5 mg or 10 mg i.v., day 47): reduced numbers
- hippocampus and other areas of the brain containing high concentrations of GnRH ([4]; 5 mg or 10 mg i.v., day 47): not discernibly affected
- immunoreactive GnRH in CNS areas normally containing cell bodies ([4]; 5 mg or 10 mg i.v., day 47): faint and diffusely localized
- numbers of GnRH-induced ovulations ([4]; 5 mg or 10 mg i.v., day 47): reduced
- numbers of corpora lutea ([4]; 5 mg or 10 mg i.v., day 47): reduced
- numbers of tertiary follicles ([4]; 5 mg or 10 mg i.v., day 47): reduced
- reduction in number of normal individual cell bodies ([4]; 5 mg or 10 mg i.v., day 47): at least 50%
- terminal fields, which normally contain the axons of GnRH receptor neurons ([4]; 5 mg or 10 mg i.v., day 47): not stained for GnRH
- number of PAS-stained pituitary cells in the pars distalis, relative to control rabbits ([4]; 5 mg or 10 mg i.v., day 47, control = 100%): 177%
- ovarian weights ([4]; 10 mg i.v., day 47): reduced
- pituitary weights ([4]; 10 mg i.v., day 47): reduced
- amount of LH released in response to GnRH ([5]; 10 mg i.v. (n=5), GnRH i.m. on day 6 post-treatment): lower in the treated animals than in the controls
- mean number of ovulation sites ([5]; 10 mg i.v., five rabbits, S.E.M.=0.5, saline controls 12.2±5.4, p=0.025): 3.6±1.1
- LH surge (level of LH at one hour post-GnRH challenge, minus the resting level before challenge) ([5]; 10 mg i.v., S.E.M.=12, controls 61.2±16.5 ng/mL, p=0.22): 49.6 ± 26.1 ng/mL
- effects on peripheral tissues ([5]; 10 mg i.v., day 7): No effects
- effects on pituitary weight ([5]; 10 mg i.v., day 7): No effects
- numbers of GnRH-induced ovulations ([5]; 10 mg i.v., day 7): reduced
- numbers of tertiary ovarian follicles ([5]; 10 mg i.v., day 7): reduced
